Assay [1] has as its target presynaptic dopamine receptor. The assay can be described thus: dopamine binding assay in vitro: displacement of 3H-ADTN from calf-caudate nucleus membranes. The note with it: 0.2 nM 3H-ADTN, 60 minutes at 25° C. Also noted: species or system calf (bovine). Here is the method:
The presynaptic dopamine receptor binding properties indicative of the presynaptic dopamine receptor regulatory, e.g. agonistic activity, of the compounds of the invention are determined in the dopamine binding assay in vitro by the following method involving the displacement of the dopamine agonist 2-amino-6,7-dihydroxy-1,2,3,4-tetrahydronaphthalene (^3 H-ADTN) from membranes from calf-caudate nucleus. [Eur. J. Pharmacol. 55, 137 (1979)].
Bovine brain tissue is homogenized in 50 volumes (based on original tissue weight) of 50 mM Tris-HCl buffer, pH 7.7 at 25° C., using a Brinkman Polytron, setting 6 for 20 seconds. The homogenate is centrifuged at 50,000×g for 10 minutes. The pellet is resuspended in 50 volumes of 50 mM Tris-HCl buffer, pH 7.7 and recentrifuged. The final pellet is resuspended in 200 volumes of incubation media containing: 50 mM Tris-HCl buffer, pH 7.7; 0.1% ascorbic acid; 0.001 mM pargyline; 120 mM NaCl; 5 mM KCl, 2 mM CaCl2 and 1 mM MgCl2.
In the binding assay, triplicate 2 ml samples (equivalent to 5 mg/ml original tissue) of the membrane suspension are incubated for 60 minutes at 25° C. with 0.2 nM ^3 H-ADTN without or in the presence of various concentrations of test compound in solvent. The reaction is terminated by filtering with 5 ml of cold 50 mM Tris-HCl buffer pH 7.7. The filters are placed in scintillation vials with 5 ml of scintillation solution, disrupted by vigorous mechanical shaking for 90 minutes, and counted for radioactivity.
The IC50 values represent the concentration of test compounds required to inhibit the specific binding of 0.2 nM ^3 H-ADTN by 50%, and are determined graphically.
A general note: In a radioligand displacement assay an active substance lowers the binding of a labelled ligand.

The test system of assay [2] is serotonin receptor. The assay can be described thus: serotonin receptor agonist activity in vivo: decrease in accumulation of 5-hydroxytryptophane in rat brain. Here is the method:
The serotonin receptor agonist activity is determined in vivo by measuring the decrease in the accumulation of 5-hydroxytryptophane in the brain after administration of a test compound in the rat, as described in J. Med. Chem. 21, 864 (1978).

Assay [3] has as its target T1, serotonin receptor (Bos taurus, UniProt F1MGM3).
T1 construct: Caudate nuclei are dissected from freshly obtained calf brains; from tissue; host or cells: calf brain caudate nuclei membranes
Kind of assay: 3H-serotonin binding assay in vitro, calf brain (caudate nuclei) membranes. The note with it: 7 nM 3H-serotonin, 10 minutes at 37° C. Here is the method: The serotonin binding properties indicative of serotonin agonistic receptor regulating activity of compounds of the invention are determined in the in vitro binding assay as follows:
Membrane suspensions are prepared from calf brain and incubated with ^3 H-serotonin by a modification of the procedure described by Bennett and Snyder. Caudate nuclei are dissected from freshly obtained calf brains; they are frozen and stored at -70° C. for up to 3 months. For each binding experiment, a portion of tissue is homogenized with a Brinkmann Polytron in 50 volumes (w/v) of ice-cold 50 mM Tris-HCl (pH 7.7 at 25° C.) containing 10 mM dithiothreitol. The homogenate is centrifuged twice at 50,000×g for 10 minutes with rehomogenization of the pellet in fresh buffer between spins. The final pellet is homogenized in 100 volumes (based on original tissue weight) cold 50 mM Tris-HCl (pH 7.6 at 25° C.) containing […] pargyline, 0.1% ascorbic acid, 120 mM NaCl, 5 mM KCl, 2 mM CaCl2, 1 mM MgCl2 and 10 mM dithiothreitol. The suspension is warmed in a 37° C. bath for 10 minutes and then returned to ice.
In the binding assay, 2-ml aliquots of the final tissue suspension (equivalent to 20 mg of original wet tissue) are added to tubes (on ice) containing ^3 H-serotonin with or without test compound freshly dissolved in 0.1% ascorbic acid. The final concentration of ^3 H-serotonin is 7 nM. Test compounds are present over a wide range of concentrations, with triplicate tubes for each concentration. Tubes are incubated at 37° C. for 10 minutes and the suspensions are immediately filtered under vacuum through Whatman GF/B glass fiber filters. The filters are washed with 10 ml of cold Tris-HCl (pH 7.7 at 25° C.), placed in scintillation vials with 12 ml of scintillation solution, disrupted by vigorous mechanical shaking for 90 minutes and counted for radioactivity. The IC50 values (concentrations of test compounds required to inhibit the specific binding of 7 nM ^3 H-serotonin by 50%) are determined graphically.

In a further assay the test system is dopamine autoreceptor. The assay can be described thus: rat gamma-butyrolactone (GBL) model, inhibition of GBL-induced DOPA accumulation (presynaptic dopamine agonist activity). The assay is classed as in vivo. On the procedure:
Indicative of potential neuroleptic activity of the compounds of the invention, the in-vivo presynaptic dopamine agonist activity (also called dopamine autoreceptor agonist activity) is determined in the rat gamma-butyrolactone (GBL) model by a modification of the procedure described by Walters and Roth, Naunyn Schmiedeberg's Arch. Pharmacol. 296, 5 (1976). In this model, a presynaptic dopamine agonist inhibits the GBL-induced accumulation of the dopamine precursor DOPA after pretreatment with 3-hydroxybenzylhydrazine (NSD-1015), a DOPA decarboxylase inhibitor.
Test compounds are dissolved in 0.9% saline, with sodium metabisulfite to prevent oxidation, if required. […] Dihydroxyphenylalanine (DOPA) is analyzed by High Pressure Liquid Chromatography/Electrochemistry (HPLC/EC) techniques using a Bio-analytical Systems (BAS) Model LC-150 series Liquid Chromatograph. […] Compounds are detected with an electro-chemical detector having an oxidizing potential of 0.7 volts and sensitivity setting of 20 nAmps/V. Tissue concentrations and recoveries are calculated by using the internal standard dihydroxybenzylamine (DHBA). […] Data is statistically analysed by one-way Analysis of Variance with Duncan's Multiple Comparison Test. The activity of the test compounds is determined as the percent inhibition of DOPA accumulation at a given dose. […]

Assay [4] relates to reserpine-induced hypomotility in the rat. The assay can be described thus: reversal of reserpine-induced hypomotility in the rat. The assay is classed as in vivo. The note with it: ip. From the text: In vivo such selectivity can be determined by measurement of the degree of reversal of reserpine induced hypomotility in the rat. The relative absence of such reversal at effective doses (e.g. in the GBL model) is indicative of selective presynaptic dopamine agonist activity.

pIC50: −log10 of the molar value. Counter-ions that a name gives are not always drawn.

T1 sequence (F1MGM3 1-403): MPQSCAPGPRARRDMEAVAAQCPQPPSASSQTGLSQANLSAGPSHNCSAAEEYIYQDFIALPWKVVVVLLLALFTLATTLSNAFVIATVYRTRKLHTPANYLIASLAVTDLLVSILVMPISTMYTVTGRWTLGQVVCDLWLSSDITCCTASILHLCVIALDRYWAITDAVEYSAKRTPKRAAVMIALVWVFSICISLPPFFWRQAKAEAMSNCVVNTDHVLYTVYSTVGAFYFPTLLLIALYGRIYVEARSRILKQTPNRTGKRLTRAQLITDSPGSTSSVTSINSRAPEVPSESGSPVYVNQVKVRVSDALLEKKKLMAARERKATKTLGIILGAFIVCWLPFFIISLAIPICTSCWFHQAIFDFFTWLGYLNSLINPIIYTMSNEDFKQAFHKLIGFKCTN

Turning to `CCCCN1CCC[C@@H]2c3cccc(O)c3OC[C@H]21` (relative stereo) [trans-4-butyl-7-hydroxy-1,2,3,4a,5,10b-hexahydro-4H-[1]-benzopyran-[3,4-b]pyridine hydrochloride], the pIC50 (usually the IC50 on a negative log10 scale, so that one unit is a factor of ten) in assay [1] was approximately 7.70. In the case of `Cc1ccc2c(c1O)OC[C@@H]1[C@@H]2CCCN1C.Cl` (relative stereo) [trans-7-hydroxy-4,8-dimethyl-1,2,3,4a,5,10b-hexahydro-4H-[1]-benzopyrano[3,4-b]pyridine hydrochloride], the “decrease of accumulation of 5-hydroxytryptophane in the frontoparietal cortex of rat brain (in words)” value with serotonin receptor [2] (dose of 0.1 mg/Kg, compared with about 25% decrease of the 8-bromo-7-methoxy-4-methyl compound) is reported as “similarly effective”. Turning to `CCCN1CCC[C@@H]2c3cccc(O)c3OC[C@H]21` (relative stereo) [trans-7-hydroxy-4-propyl-1,2,3,4a,5,10b-hexahydro-4H-[1]-benzopyrano[3,4-b]pyridine hydrochloride], the pIC50 in assay [1] was approximately 7.22. For `COc1cccc2c1OC[C@@H]1[C@@H]2CCCN1C` (relative stereo) [trans-7-methoxy-4-methyl-1,2,3,4a,5,10b-hexahydro-4H-[1]-benzopyrano[3,4-b]pyridine hydrochloride], on serotonin receptor [3], the pIC50 was approximately 7.10. As for `COc1c(Br)ccc2c1OC[C@@H]1[C@@H]2CCCN1C.Cl` (relative stereo) [trans-8-bromo-7-methoxy-4-methyl-1,2,3,4a,5,10b-hexahydro-4H-[1]-benzopyrano[3,4-b]pyridine hydrochloride], at serotonin receptor [3], the pIC50 was approximately 7.70. The “decrease of accumulation of 5-hydroxytryptophane in the frontoparietal cortex of rat brain” value with serotonin receptor [2] (2.5 mg/kg s.c.) was “about 25%”. The compound `CCCN1CCC[C@@H]2c3cc(O)ccc3OC[C@H]21.Cl` (relative stereo) [trans-9-hydroxy-4-propyl-1,2,3,4a,5,10b-hexahydro-4H-[1]-benzopyrano[3,4-b]pyridine hydrochloride] showed a pIC50 in assay [1] of approximately 7.52. Further, the ED50 (in general, the dose at which the effect has come halfway, by size or by number of responders) in the assay with dopamine autoreceptor (ip, read-out: ED50 in the GBL model (dose at which DOPA accumulation is inhibited by 50%)) is approximately 0.16 mg/kg; in assay [4], approximately 10 mg/kg. For the same compound, in the assay on dopamine autoreceptor (oral, dose of about 0.5 mg/kg), the “activity in the GBL model orally” value was “active”.

As for `CN1CCC[C@@H]2c3c(O)cccc3OC[C@H]21` (relative stereo) [trans-10-hydroxy-4-methyl-1,2,3,4a,5,10b-hexahydro-4H-[1]-benzopyrano[3,4-b]pyridine hydrochloride], on serotonin receptor [3], the pIC50 was approximately 6.40. `CCCN1CCC[C@@H]2c3c(OC)cccc3OC[C@H]21` (relative stereo) [trans-10-methoxy-4-propyl-1,2,3,4a,5,10b-hexahydro-4H-[1]-benzopyrano[3,4-b]pyridine hydrochloride] had a pIC50 at serotonin receptor [3] of approximately 7.70. Regarding `CCCN1CCC=C2c3cc(O)ccc3SCC21` (stereo not shown) [9-hydroxy-4-propyl-2,3,4a,5-tetrahydro-4H-[1]-benzothiopyrano[3,4-b]pyridine hydrochloride], the pIC50 in assay [1] was approximately 8.00.

The values above are taken from patent US4604397A, “Certain benzo-(pyrano and thiopyrano)-pyridines, useful as CNS agents” (Ciba-Geigy Corporation, priority 1985, dated 1986).
